Measured values reported in US20120142947A1, “Stabilized 3-Hydroxyflavan Compositions and Methods Therefor” (priority 2005, published 2012).

Assay: Prevention of discoloration of EGCG solutions (absorbance at 492 nm)
Format: physicochemical
Conditions: for protection of EGCG from discoloration by reducing agent: further experiments at the observed pH ranges (data not shown)
Method: Discoloration was measured using a spectrophotometer at a fixed wavelength of 492 nm. More specifically, solutions of EGCG (2 mM) and NAC (4 mM) were prepared in McIlvaine buffer at various pH levels in 1.0 increments between pH 3.0 to pH 7.0. A control experiment was set up without NAC but otherwise identical conditions. The so prepared solutions were incubated at 55° C. and the discoloration was measured at 492 nm over the next 15 days.

Row | Compound | discoloration measured at 492 nm (EGCG (2 mM) and NAC (4 mM) in McIlvaine buffer, pH levels of less than 6.0, 55° C., over 15 days, versus control without NAC) | protection of EGCG from discoloration by reducing agent
1 | CC(=O)N[C@@H](CS)C(=O)O [NAC, N-acetyl cysteine] | substantially reduced | prevented discoloration
2 | N[C@@H](CS)C(=O)O [cysteine] |  | failed to provide significant protection from discoloration
3 | N[C@@H](CCC(=O)N[C@@H](CS)C(=O)NCC(=O)O)C(=O)O [glutathione] |  | prevented discoloration
